We go through 16 compounds from ChEMBL document CHEMBL1141103, “5-Cyanopyrimidine derivatives as a novel class of potent, selective, and orally active inhibitors of p38alpha MAP kinase” (J Med Chem, 2005).

In one data set the test system is PBMC. Description: Concentration required to inhibit LPS-induced TNFalpha production in human peripheral blood mononuclear cells; n=3. The data set is classed as functional, cell-based.
Another data set concerns PHA-Ly. Description: In vitro cytotoxic effect of compound (30 uM) on PHA blast cells compared to control after 24 hours of treatment. It counts as functional, Homo sapiens.
Data set [1] in a line: In vitro permeability of compound into Caco-2 cells. The data set is classed as ADME, cell-based. To be noted: human, read-out: Permeability. For orientation: Caco-2 monolayers are a common model of the intestinal barrier.
Data set [2] in a line: Half-life of compound evaluated in mice after intravenous administration. To be noted: mouse, in vivo. The data set is classed as ADME, organism-based.
The nature of data set [3]: Metabolic rate as a measure of compound stability in human liver microsomes. It counts as ADME, Microsome. For orientation: Microsomes from liver hold many membrane-bound enzymes, among them those of drug oxidation.
Data set [4] can be described thus: Clearance of compound in mice after intravenous administration. The data set is classed as ADME, organism-based. Particulars: mouse, in vivo.
The nature of data set [5]: Metabolic rate as a measure of compound stability in rat liver microsomes. It counts as ADME, Microsome.
Data set [6] can be described thus: Oral bioavailability of compound after administration of a solution dose in PEG400. To be noted: eutheria, in vivo. The data set is classed as ADME, organism-based.
For data set [7], the target named is Insulin-like growth factor 1 receptor (Homo sapiens, UniProt P08069). Description: Inhibitory concentration against IGF-IR.
In data set [8] the target is Serine/threonine-protein kinase AKT (Homo sapiens, UniProt P31751+Q9Y243+P31749). The experiment in a line: Inhibitory concentration against Akt. The data set is classed as protein assay.
The target in data set [9] is Cyclin-dependent kinase 2 (Homo sapiens, UniProt P24941). Description: Inhibitory concentration against CDK2.
Data set [10] concerns the target Tyrosine-protein kinase ITK/TSK (Homo sapiens, UniProt Q08881). Description: Inhibitory concentration against Itk.
Data set [11] concerns the target Mitogen-activated protein kinase 1 (Homo sapiens, UniProt P28482). The experiment in a line: Inhibitory concentration against ERK.
Data set [12] has as its target Mitogen-activated protein kinase 14 (Homo sapiens, UniProt Q16539). Description: Inhibitory concentration against p38 alpha.
Data set [13] deals with Mitogen-activated protein kinase 13 (Homo sapiens, UniProt O15264). The experiment in a line: Inhibitory concentration against p38 delta.
Chain of Mitogen-activated protein kinase 13 (O15264 whole entry): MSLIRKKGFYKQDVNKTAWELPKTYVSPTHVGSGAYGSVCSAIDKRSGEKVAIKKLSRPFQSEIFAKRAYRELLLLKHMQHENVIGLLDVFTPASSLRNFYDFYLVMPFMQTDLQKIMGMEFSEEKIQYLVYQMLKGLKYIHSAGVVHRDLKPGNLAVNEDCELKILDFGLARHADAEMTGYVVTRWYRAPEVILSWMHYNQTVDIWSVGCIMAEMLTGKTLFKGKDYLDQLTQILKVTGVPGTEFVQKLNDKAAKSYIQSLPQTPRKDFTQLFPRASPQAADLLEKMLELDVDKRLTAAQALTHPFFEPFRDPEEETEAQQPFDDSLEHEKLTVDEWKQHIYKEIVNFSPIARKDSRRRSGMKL
Data set [14] deals with Fibroblast growth factor receptor (Homo sapiens, UniProt P22607+P11362+P22455+P21802). The experiment in a line: Inhibitory concentration against FGF receptor. It counts as protein assay.
Data set [15] deals with Mitogen-activated protein kinase 12 (Homo sapiens, UniProt P53778). Description: Inhibitory concentration against p38 gamma.
Chain of Mitogen-activated protein kinase 12 (P53778 whole entry): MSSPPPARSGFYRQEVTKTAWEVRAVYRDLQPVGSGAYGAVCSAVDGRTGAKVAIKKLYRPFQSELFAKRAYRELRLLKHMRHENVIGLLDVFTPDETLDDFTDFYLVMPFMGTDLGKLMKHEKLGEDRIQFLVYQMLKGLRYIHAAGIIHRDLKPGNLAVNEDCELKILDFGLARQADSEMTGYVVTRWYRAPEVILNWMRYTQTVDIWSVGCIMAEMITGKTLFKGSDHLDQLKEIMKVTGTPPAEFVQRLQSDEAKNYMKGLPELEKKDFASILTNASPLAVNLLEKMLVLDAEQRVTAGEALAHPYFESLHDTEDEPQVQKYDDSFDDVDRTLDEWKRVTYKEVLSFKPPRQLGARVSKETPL
Data set [16] deals with cAMP-dependent protein kinase (PKA) (Homo sapiens, UniProt P22694+P17612+P22612). Description: Inhibitory concentration against PKA. The data set is classed as protein assay.
The target in data set [17] is Dual specificity mitogen-activated protein kinase kinase 1 (Homo sapiens, UniProt Q02750). Description: Inhibitory concentration against MEK.
Data set [18] addresses Tyrosine-protein kinase SYK (Homo sapiens, UniProt P43405). Description: Inhibitory concentration against Syk.
The target in another data set is Protein kinase C (PKC). The experiment in a line: Inhibitory concentration against PKC. The data set is classed as protein assay.
The target of data set [19] is Receptor tyrosine-protein kinase erbB-2 (Homo sapiens, UniProt P04626). The experiment in a line: Inhibitory concentration against HER2 (ErbB2).
Chain of Receptor tyrosine-protein kinase erbB-2 (P04626 whole entry): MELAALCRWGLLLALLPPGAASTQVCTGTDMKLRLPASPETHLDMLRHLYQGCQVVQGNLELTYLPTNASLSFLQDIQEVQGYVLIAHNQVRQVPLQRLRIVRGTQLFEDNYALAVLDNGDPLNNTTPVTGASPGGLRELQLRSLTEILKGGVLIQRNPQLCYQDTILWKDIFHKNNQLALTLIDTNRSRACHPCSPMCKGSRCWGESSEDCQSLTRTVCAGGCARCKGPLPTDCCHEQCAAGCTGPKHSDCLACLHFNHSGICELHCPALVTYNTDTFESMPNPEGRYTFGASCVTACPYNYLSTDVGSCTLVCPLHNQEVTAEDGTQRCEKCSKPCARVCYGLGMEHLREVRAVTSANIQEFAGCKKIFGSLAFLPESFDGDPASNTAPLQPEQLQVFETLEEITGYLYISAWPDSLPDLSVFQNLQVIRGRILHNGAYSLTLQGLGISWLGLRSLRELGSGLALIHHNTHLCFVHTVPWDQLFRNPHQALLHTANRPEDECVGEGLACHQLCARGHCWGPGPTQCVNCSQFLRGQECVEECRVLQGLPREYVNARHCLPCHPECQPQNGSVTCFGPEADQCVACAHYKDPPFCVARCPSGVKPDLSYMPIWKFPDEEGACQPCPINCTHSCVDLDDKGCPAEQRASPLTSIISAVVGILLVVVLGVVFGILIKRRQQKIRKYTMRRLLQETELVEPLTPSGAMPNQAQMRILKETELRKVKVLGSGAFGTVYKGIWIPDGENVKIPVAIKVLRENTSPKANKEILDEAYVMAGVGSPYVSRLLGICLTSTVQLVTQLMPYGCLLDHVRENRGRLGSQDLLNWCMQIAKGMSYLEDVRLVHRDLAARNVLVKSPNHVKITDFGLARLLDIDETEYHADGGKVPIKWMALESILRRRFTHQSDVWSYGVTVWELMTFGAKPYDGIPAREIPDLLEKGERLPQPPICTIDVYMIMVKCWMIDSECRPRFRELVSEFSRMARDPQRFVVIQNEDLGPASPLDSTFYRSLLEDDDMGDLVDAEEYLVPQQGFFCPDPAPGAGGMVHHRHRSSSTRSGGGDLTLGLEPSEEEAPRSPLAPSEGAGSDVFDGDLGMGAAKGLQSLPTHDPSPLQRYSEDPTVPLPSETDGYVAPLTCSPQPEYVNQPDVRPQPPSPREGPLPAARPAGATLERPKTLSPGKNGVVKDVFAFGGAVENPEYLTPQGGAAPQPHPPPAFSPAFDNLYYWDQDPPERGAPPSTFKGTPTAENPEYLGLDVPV
The target in data set [20] is Vascular endothelial growth factor receptor 2 (Homo sapiens, UniProt P35968). The experiment in a line: Inhibitory concentration against KDR.
Chain of Vascular endothelial growth factor receptor 2 (P35968 whole entry): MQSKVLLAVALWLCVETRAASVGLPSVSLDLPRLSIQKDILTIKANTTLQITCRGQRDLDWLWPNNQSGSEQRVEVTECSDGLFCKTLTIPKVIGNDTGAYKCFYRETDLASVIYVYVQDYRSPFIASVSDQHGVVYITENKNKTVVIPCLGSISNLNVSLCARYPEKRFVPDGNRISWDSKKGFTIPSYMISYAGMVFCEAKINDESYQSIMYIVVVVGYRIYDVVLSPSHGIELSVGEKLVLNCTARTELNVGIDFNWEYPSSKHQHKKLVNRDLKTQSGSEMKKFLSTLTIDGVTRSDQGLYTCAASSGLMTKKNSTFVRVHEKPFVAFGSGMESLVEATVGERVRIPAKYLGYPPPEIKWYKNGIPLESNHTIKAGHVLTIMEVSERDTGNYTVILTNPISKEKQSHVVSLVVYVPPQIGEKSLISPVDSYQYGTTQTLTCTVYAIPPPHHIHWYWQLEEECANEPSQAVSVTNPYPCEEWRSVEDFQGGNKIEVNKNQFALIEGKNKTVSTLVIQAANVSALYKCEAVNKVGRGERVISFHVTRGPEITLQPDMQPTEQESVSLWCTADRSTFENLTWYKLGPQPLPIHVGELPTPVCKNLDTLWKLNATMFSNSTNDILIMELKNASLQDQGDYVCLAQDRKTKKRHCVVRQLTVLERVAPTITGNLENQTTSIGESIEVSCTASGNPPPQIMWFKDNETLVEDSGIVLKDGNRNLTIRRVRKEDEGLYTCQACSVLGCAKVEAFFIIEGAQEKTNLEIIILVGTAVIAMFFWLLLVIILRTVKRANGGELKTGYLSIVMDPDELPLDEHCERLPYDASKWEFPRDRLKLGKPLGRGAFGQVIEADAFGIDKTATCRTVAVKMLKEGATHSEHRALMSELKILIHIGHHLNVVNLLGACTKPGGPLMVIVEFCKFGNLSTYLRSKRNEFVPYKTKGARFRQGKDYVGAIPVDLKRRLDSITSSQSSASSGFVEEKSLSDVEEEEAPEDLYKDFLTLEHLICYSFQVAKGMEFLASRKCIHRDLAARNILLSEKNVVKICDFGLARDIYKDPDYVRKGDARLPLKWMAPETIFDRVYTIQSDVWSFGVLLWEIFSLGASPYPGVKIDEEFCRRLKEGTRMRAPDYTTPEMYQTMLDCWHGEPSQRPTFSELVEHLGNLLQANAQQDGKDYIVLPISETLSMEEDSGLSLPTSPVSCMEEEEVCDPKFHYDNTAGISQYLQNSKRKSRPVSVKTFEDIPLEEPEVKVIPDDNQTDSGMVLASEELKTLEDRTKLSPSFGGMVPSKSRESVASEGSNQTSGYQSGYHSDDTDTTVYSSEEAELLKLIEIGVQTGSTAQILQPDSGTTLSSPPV
The target of data set [21] is Inhibitor of NF-kappa-B kinase (IKK) (Homo sapiens, UniProt O14920+O15111+Q9Y6K9). The experiment in a line: Inhibitory concentration against IKK. The data set is classed as protein-complex assay.
For data set [22], the target named is Hepatocyte growth factor receptor (Homo sapiens, UniProt P08581). The experiment in a line: Inhibitory concentration against Met.
Chain of Hepatocyte growth factor receptor (P08581 whole entry): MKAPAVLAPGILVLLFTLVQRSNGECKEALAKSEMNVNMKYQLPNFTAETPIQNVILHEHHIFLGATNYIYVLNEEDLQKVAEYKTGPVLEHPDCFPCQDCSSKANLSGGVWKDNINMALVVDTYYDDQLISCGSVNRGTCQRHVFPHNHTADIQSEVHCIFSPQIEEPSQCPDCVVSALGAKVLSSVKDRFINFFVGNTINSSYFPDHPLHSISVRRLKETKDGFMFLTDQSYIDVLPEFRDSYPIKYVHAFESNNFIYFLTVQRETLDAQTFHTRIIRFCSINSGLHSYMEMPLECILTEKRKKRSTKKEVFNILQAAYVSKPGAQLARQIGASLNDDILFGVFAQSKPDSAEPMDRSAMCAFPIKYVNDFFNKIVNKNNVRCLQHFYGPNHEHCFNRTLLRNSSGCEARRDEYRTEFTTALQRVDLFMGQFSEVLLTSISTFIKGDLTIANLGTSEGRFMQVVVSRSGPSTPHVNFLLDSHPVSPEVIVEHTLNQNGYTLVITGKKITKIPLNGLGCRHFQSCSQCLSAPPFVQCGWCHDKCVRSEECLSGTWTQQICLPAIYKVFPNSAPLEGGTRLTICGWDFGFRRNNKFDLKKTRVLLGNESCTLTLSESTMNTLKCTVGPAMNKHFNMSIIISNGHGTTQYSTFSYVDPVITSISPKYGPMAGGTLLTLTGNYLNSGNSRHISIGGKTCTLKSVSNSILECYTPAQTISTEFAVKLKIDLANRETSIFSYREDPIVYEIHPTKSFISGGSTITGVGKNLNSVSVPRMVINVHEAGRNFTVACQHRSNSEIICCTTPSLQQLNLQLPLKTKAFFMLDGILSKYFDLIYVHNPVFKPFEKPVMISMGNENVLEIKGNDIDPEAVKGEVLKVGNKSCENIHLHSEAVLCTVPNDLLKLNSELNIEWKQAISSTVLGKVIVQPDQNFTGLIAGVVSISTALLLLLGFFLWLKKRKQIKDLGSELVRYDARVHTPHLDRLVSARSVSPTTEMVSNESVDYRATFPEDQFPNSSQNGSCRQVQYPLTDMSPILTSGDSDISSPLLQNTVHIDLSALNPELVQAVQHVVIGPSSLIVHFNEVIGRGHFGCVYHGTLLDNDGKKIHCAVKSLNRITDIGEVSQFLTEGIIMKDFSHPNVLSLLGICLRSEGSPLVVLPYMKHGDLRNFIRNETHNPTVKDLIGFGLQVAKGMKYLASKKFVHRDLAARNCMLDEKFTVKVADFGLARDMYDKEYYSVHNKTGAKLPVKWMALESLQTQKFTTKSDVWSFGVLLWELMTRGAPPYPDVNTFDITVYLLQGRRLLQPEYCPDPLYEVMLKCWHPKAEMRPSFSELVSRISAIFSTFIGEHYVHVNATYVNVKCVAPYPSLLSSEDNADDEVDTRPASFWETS
The target of data set [23] is Mitogen-activated protein kinase 11 (Homo sapiens, UniProt Q15759). The experiment in a line: Inhibitory concentration against p38 beta.
In data set [24] the target is MAP kinase-activated protein kinase 2 (Homo sapiens, UniProt P49137). Description: Inhibitory concentration against MK2.
Data set [25] has as its target RAF proto-oncogene serine/threonine-protein kinase (Homo sapiens, UniProt P04049). Description: Inhibitory concentration against Raf.
Data set [26] deals with Glycogen synthase kinase-3 (Homo sapiens, UniProt P49840+P49841). Description: Inhibitory concentration against GSK-3. It counts as protein assay.
Data set [27] deals with Tyrosine-protein kinase Lck (Homo sapiens, UniProt P06239). Description: Inhibitory concentration against Lck.
The target in data set [28] is Tyrosine-protein kinase JAK3 (Homo sapiens, UniProt P52333). The experiment in a line: Inhibitory concentration against JAK3.
In the next data set the target is MAP kinase p38 (Homo sapiens, UniProt O15264+Q15759+Q16539+P53778). Description: Binding affinity for human p38 MAP kinase expressed in Escherichia coli using [gamma-33P]ATP; n=4.

Chain of Mitogen-activated protein kinase 14 (Q16539 whole entry): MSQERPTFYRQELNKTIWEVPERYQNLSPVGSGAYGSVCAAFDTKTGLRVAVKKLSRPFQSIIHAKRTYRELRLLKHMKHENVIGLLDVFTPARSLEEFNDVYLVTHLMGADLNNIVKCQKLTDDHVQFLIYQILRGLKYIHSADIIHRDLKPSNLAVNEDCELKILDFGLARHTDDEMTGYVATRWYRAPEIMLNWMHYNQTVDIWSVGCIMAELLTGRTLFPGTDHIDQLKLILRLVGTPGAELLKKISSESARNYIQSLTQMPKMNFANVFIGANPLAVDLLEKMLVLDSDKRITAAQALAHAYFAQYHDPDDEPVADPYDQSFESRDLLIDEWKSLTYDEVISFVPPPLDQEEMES

What is called IC50 is the concentration at which inhibition is half-maximal. The low end stands for greater potency, the high end for weaker potency. In turn, `CCCNc1ncnc(Nc2cc(C(=O)NOC)ccc2C)c1C#N` registered an IC50 in the data set with PBMC of 158 µM.

In the data set with PBMC, `CONC(=O)c1ccc(C)c(Nc2ncnc(NC(C)C)c2C#N)c1` yielded an IC50 of 4.6 µM.

For the compound `CONC(=O)c1ccc(C)c(Nc2nc(N3CCCN(C)CC3)nc(N(C)CC(C)(C)C)c2C#N)c1`, in the data set on PBMC, it took 0.33 µM to reach half-maximal inhibition (IC50).

For orientation: half-life means how long it takes for the measured level to halve. Low readings indicate fast loss, high ones slow loss. By clearance is commonly meant a measure of how efficiently the substance is removed, as volume per time. A higher clearance goes with efficient removal. The term bioavailability denotes dose-corrected exposure relative to a reference, in per cent. Higher therefore signals good availability. For `Cc1ccc(C(=O)Nc2ccon2)cc1Nc1ncnc(NC(C)C)c1C#N`, in the data set with PHA-Ly, the Control worked out at 82%. For the same compound, in [1], the Papp was 23.9 ×10⁻⁶ cm/s. In addition, the half-life in data set [2] is 1.7 h. For the same compound, the results for the Metabolic rate in data set [3] and in data set [5] were 0.012 nmol/min*mg of protein and 0.22 nmol/min*mg of protein, respectively. The clearance in data set [4] was 28.3 mL/min/kg. Further, in the data set on PBMC, the IC50 stood at 8.7 µM. In data set [6], this compound gave a bioavailability of 100%.

As for `CCn1nccc1NC(=O)c1ccc(C)c(Nc2nc(N)nc(NC(C)C)c2C#N)c1`, the IC50 with PBMC came out at 67 µM.

`Cc1ccc(C(=O)Nc2ccon2)cc1Nc1nc(N)nc(NC(C)C)c1C#N` came in with an IC50 with PBMC of 18 µM.

As for `Cc1ccc(C(=O)Nc2ccon2)cc1Nc1ncnc(NC2CCCC2)c1C#N`, the IC50 in data set [7] is over 50 µM; in [8], over 50 µM; in data set [9], over 100 µM; in [10], over 50 µM; in data set [11] it was over 5 µM; in [12] it was 0.0041 µM. For the same compound, the IC50 in data set [13] is over 30 µM; in [14], over 50 µM; in data set [15] it was over 30 µM; in data set [16], over 50 µM; in data set [17] it was over 25 µM; in the data set on PBMC, 3.5 µM. Further, the IC50 in data set [18] is over 50 µM; at Protein kinase C (PKC), over 50 µM; in data set [19], over 50 µM; in data set [20] it was over 30 µM; in data set [21], over 10 µM; in [22], over 50 µM. The IC50 is under 0.1 µM in [23]; over 50 µM in data set [24]; over 30 µM in data set [25]; over 50 µM in data set [26]; over 50 µM in data set [27]; over 50 µM in data set [28].

A word on the Ki: it is the dissociation constant of the complex between target and ligand, obtained from inhibition or displacement. At MAP kinase p38, `CONC(=O)c1ccc(C)c(Nc2ncnc(NC3CCCC3)c2C#N)c1` had a Ki of 0.00042 µM. For the same compound, the IC50 with PBMC was found to be 4.1 µM.

As for `CNc1ncnc(Nc2cc(C(=O)NOC)ccc2C)c1C#N`, in the data set on PBMC, the IC50 was over 250 µM.

For the compound `CCn1nccc1NC(=O)c1ccc(C)c(Nc2nc(N)nc(NC3CCCC3)c2C#N)c1`, in the data set with PBMC, the IC50 came to 21 µM.

Take `Cc1ccc(C(=O)Nc2ccon2)cc1Nc1nc(N)nc(NC2CCCC2)c1C#N`: half-maximal inhibition with PBMC (IC50) required 1.5 µM.

In the data set on PBMC, `CCn1nccc1NC(=O)c1ccc(C)c(Nc2ncnc(NC(C)C)c2C#N)c1` yielded an IC50 of 130 µM.

The compound `CONC(=O)c1ccc(C)c(Nc2nc(N)nc(N(C)CC(C)(C)C)c2C#N)c1` registered an IC50 with PBMC of 17 µM.

As to `CNc1nc(Nc2cc(C(=O)NOC)ccc2C)c(C#N)c(N(C)CC(C)(C)C)n1`, the IC50 with PBMC was 64 µM.

Turning to `CCn1nccc1NC(=O)c1ccc(C)c(Nc2ncnc(NC3CCCC3)c2C#N)c1`, the IC50 with PBMC worked out at 72 µM.

The compound `CONC(=O)c1ccc(C)c(Nc2ncnc(N(C)CC(C)(C)C)c2C#N)c1` yielded an IC50 in the data set on PBMC of 42 µM.
